Data published in patent US20250079000A1, “METHODS AND MARKERS FOR DIAGNOSIS OF PARKINSON'S DISEASE” (Berg LLC, priority 2021, published 2025).

Tests used:
[1] = NCAM short-term stability in plasma QC samples; type: in vitro ADME, human; conditions: HQC, MQC, LQC; 4° C. and 24° C.; 2, 4 and 24 hours; acceptance criteria −25% to 25%
Description: In the short-term stability test, three levels of QC samples were thawed from the −80° C. freezer and incubated at 4° C. or RT (18-24° C.) for 2, 4 or 24 h. The samples were then assayed and compared with samples freshly thawed from the −80° C. freezer and assayed along with the samples incubated at different conditions on the day of the assay.
Precision analyses were performed at high, medium and low concentrations (HQC, MQC, and LQC, respectively). For each concentration, twelve experiments were performed. […] Accuracy analyses were performed at two concentrations of NCAM: 10,000 pg/mL and 2,000 pg/mL. Five experiments were performed at each concentration. Recovery percentages for all experiments at both concentrations (FIG. 28C) were within the acceptance criteria of greater than or equal to 80% and less than or equal to 120%. Parallelism analyses were performed using six individual plasma samples at four dilutions. Recovery percentages (FIG. 28D) were within the acceptance criteria of greater than or equal to 75% and less than or equal to 125% for all samples tested at each of the four dilutions. Short-term stability analyses were performed at two temperatures: 4° C. and 24° C. For each temperature, high, medium and low concentration samples (HQC, MQC, and LQC, respectively) were maintained at 2 hours, 4 hours, and 24 hours.

[2] = Short-term and long-term stability of NAP spiked in 2.5% BSA standard solution; type: physicochemical; conditions: for Bias %, long-term stability: LTS (88 days, −80 C.); for Bias %, short-term stability: STS (24 hrs, 5 C.)
Description: (§1) Detection and Quantitation of NAP using LC-MS/MS. To quantify NAP in human K2-EDTA plasma, the quantification method using LC-MS/MS was developed. Due to low circulating levels of NAP, the sensitivity of quantification was improved using derivatization of isobutyl chloroformate in the sample preparation. The validation performance of the NAP assay is summarized in Table 8-15, including linearity, precision, matrix effect, system suitability, short-term stability, long-term stability, and reproducibility in the autosampler. […] The results of validation assessed by QCs met acceptance criteria (Table 9-15).

[3] = Stability of NAP spiked in human plasma (short-term, long-term, freeze-thaw, re-injection); type: in vitro ADME
Description: as §1

[4] = HQC, expected value 54.2 ng/mL, acceptable range 27.8-80.7
[5] = LQC, expected value 3.2 ng/mL, acceptable range 2.33-4.03

P13591 (NCAM): Neural Cell Adhesion Molecule 1, cell adhesion protein, Uniprot P13591
Short-term stability of plasma samples [1]: within acceptance criteria

CC(=O)NCCCCN [NAP, N-acetyl putrescine]
Bias %, long-term stability ([2]; L1, 1.0 ng/mL): 10.6% | Bias %, long-term stability ([2]; L8, 85.0 ng/mL): −8.1% | Bias %, short-term stability ([2]; L1, 1.0 ng/mL): −3.6% | Bias %, short-term stability ([2]; substock, 2000 ng/mL): −6.7% | Mean concentration, freeze-thaw stability (4x) [3, 4]: 42.4 ng/mL | Mean concentration, long-term stability (84 days, −80° C.) [3, 4]: 63.4 ng/mL | Mean concentration, re-injection stability in autosampler (8 days) [3, 4]: 46.5 ng/mL | Mean concentration, short-term stability (24 h, RT) [3, 4]: 41.0 ng/mL | Mean concentration, freeze-thaw stability (4x) [3, 5]: 3.1 ng/mL | Mean concentration, long-term stability (84 days, −80° C.) [3, 5]: 3.2 ng/mL | Mean concentration, re-injection stability in autosampler (8 days) [3, 5]: 3.2 ng/mL | Mean concentration, short-term stability (24 h, RT) [3, 5]: 3.1 ng/mL
